Source: patent US7371720B2, “Cationic peptides of the phylloseptin family isolated from the skin secretion of Phyllomedusa hypochondrialis” (Empressa Brasileira de Pesquisa Agropecuaria - Embrapa, priority 2001, dated 2008)
Peptide text beside a SMILES is read from it.

Legend:
Assay type in all cases: cell-based
[1] = test system: Escherichia coli ATTC 25922; conditions: 20 h, 37° C., TSB, 100% growth inhibition
Method: (§1) The microorganisms Escherichia coli ATTC 25922, Pseudomonas aeroginosa ATTC 27853, Staphylococcus aureus ATTC 25923 and Enterococcus faecalis ATTC 29212 and a Brazilian strain of P. aeroginosa were used for the anti-microbial assay
(§2) The microorganisms were cultured in stationary culture at 37° C. Bacteria were grown in Tryptic Soy Broth (TSB). The bioassays were performed by liquid growth inhibition assay lawn as described by Bulet et al (Bulet, P., Dimarcq, J. L., Hetru, C., Lagueux, M., Charlet, M., Hegy, G., VanDorsselaer, A. and Hoffmann, J. A. 1993. J. Biol. Chem. 268, 14893-14897). Molecules of Phylloseptin I were dissolved in sterile distilled and deionized water and diluted 8-fold in TSB (OXIOD England) broth. Various concentrations of PSI solution were tested, being the highest 128 μg/ml. The initial inoculum was approximately 1×10^5 colony forming units (CFU)/ml and limit of detection was 10^2 CFU/ml. The final volume was 250 μl (25 μl of the peptide test in water, 25 μl of the inoculum in TSB, and 200 μl of TSB broth). The minimal inhibitory concentration (MIC) was measured for turbidity (OD at 595 nm) 20 h after all microorganisms were grown in stationary culture at 37° C. The lowest concentration of the peptide in which no growth occurred was defined as the MIC.
(§3) The minimal inhibitory concentrations (MICs) of the isolated Phylloseptin I against several Gram-positive and Gram-negative bacteria were determined as described by Park et al (Park, C. B., Kim, M. S., and Kim, S. C. 1996. 218 Biochem. Biophys. Res. Commun. 408-413.). […] That is, the minimal inhibitory concentration was defined as the peptide concentration which produces 100% of microorganism growth inhibition after 20 h incubation in culture media.

[2] = test system: Pseudomonas aeroginosa ATTC 27853; conditions: Pseudomonas aeruginosa ATTC; 20 h, 37° C., TSB; 100% growth inhibition
Method: as §1, §2, §3

[3] = test system: Pseudomonas aeruginosa wt; conditions: Pseudomonas aeruginosa wt (Brazilian strain); 20 h, 37° C., TSB; 100% growth inhibition
Method: as §1, §2, §3

[4] = test system: Enterococcus faecalis ATTC 29212; conditions: 20 h, 37° C., TSB, 100% growth inhibition
Method: as §1, §2, §3

[5] = test system: Staphylococcus aureus ATTC 25923; conditions: Staphilococcus aureus ATTC; 20 h, 37° C., TSB; 100% growth inhibition
Method: as §1, §2, §3

human red blood cells = test: Hemolysis assay
Method: Human erythrocytes (blood type O^−) from a healthy person were freshly prepared prior to each experiment. Hemolytic activity was assayed as described by Aboudy etal (Aboudy, Y., Mendelson, E., Shalit, I., Bessalle, R., Fridikin, M. 1994. Int. J. Peptide Protein Res. 43, 573-582.) with minor modifications. Three milliliters of freshly prepared erythrocytes (for methodology see Gibson, B. W., Tang, D., Mandrell, R., Kelly, M. and Spindel, E. R. 1991. J. Biol. Chem. 266, 23103-23111.21) was washed with isotonic phosphate-buffered saline (PBS), pH 7.4, until the color of the supernatant turned clear. The washed erythrocytes were then diluted to a final volume of 20 ml in the same buffer. Aliquots of cell suspentions (190 μl) containing samples (10 μl) were serially diluted in PBS, incubated at 37° C. for 30 min and then centrifuged at 4000×g for 5 min; 100 μl of supernatant was taken, diluted to 1.0 ml with PBS, and monitored at 567 nm. The relative optical density, as compared with that of the cell suspension treated with 0.2% Triton X-100, was defined as % hemolysis.
The hemolytic activity of Phylloseptin I and II was tested at different concentrations.

Compound | Minimal Inhibitory concentration [1] [µg/mL] | Minimal Inhibitory concentration [2] [µg/mL] | Minimal Inhibitory concentration [3] [µg/mL] | Minimal Inhibitory concentration [4] [µg/mL] | Minimal Inhibitory concentration [5] [µg/mL] | other results
Polimixyn B | 64 | 16 | 16 | – | – | –
O=C(N[C@H](CO)[C@H](O)c1ccc([N+](=O)[O-])cc1)C(Cl)Cl [Chloranfenicol] | 32 | – | – | 32 | 32 | –
CC[C@H](C)[C@H](NC(=O)[C@H](C)NC(=O)[C@H](Cc1c[nH]cn1)NC(=O)[C@@H]1CCCN1C(=O)[C@@H](NC(=O)[C@H](CC(C)C)NC(=O)[C@H](CO)NC(=O)[C@H](CC(C)C)NC(=O)[C@@H](N)Cc1ccccc1)[C@@H](C)CC)C(=O)N[C@@H](CC(N)=O)C(=O)N[C@@H](C)C(=O)N[C@H](C(=O)N[C@@H](CO)C(=O)N[C@H](C(=O)N[C@@H](CC(C)C)C(=O)N[C@H](C(=O)N[C@@H](Cc1c[nH]cn1)C(=O)N[C@@H](Cc1c[nH]cn1)C(=O)N[C@@H](Cc1ccccc1)C(=O)O)C(C)C)[C@@H](C)O)C(C)C [PS II, Phe Leu Ser Leu Ile Pro His Ala Ile Asn Ala Val Ser Thr Leu Val His His Phe] (H-FLSLIPHAINAVSTLVHHF-OH) | – | – | – | – | – | % Hemolysis of human red blood cells (human red blood cells; red cells of human, 1 μg/mL): 0.00%; % Hemolysis of human red blood cells (human red blood cells; red cells of human, 2 μg/mL): 0.00%; % Hemolysis of human red blood cells (human red blood cells; red cells of human, 4 μg/mL): 0.10%; % Hemolysis of human red blood cells (human red blood cells; red cells of human, 8 μg/mL): 0.28%; % Hemolysis of human red blood cells (human red blood cells; red cells of human, 16 μg/mL): 0.70%; % Hemolysis of human red blood cells (human red blood cells; red cells of human, 32 μg/mL): 0.80%; % Hemolysis of human red blood cells (human red blood cells; red cells of human, 64 μg/mL): 1.05%; % Hemolysis of human red blood cells (human red blood cells; red cells of human, 128 μg/mL): 2.05%
CC1(C)S[C@@H]2[C@H](NC(=O)[C@H](N)c3ccccc3)C(=O)N2[C@H]1C(=O)O [Amplicilyn] | 64 | – | – | 128 | – | –
Gentamicyn | 64 | 64 | 64 | – | – | –
CC[C@H](C)[C@H](NC(=O)[C@H](C)NC(=O)[C@H](CO)NC(=O)[C@@H](NC(=O)[C@H](C)NC(=O)[C@H](CC(N)=O)NC(=O)[C@@H](NC(=O)[C@H](C)NC(=O)[C@H](Cc1c[nH]cn1)NC(=O)[C@@H]1CCCN1C(=O)[C@@H](NC(=O)[C@H](CC(C)C)NC(=O)[C@H](CO)NC(=O)[C@H](CC(C)C)NC(=O)[C@@H](N)Cc1ccccc1)[C@@H](C)CC)[C@@H](C)CC)C(C)C)C(=O)N[C@@H](C)C(=O)N[C@@H](CCCCN)C(=O)N[C@@H](Cc1c[nH]cn1)C(=O)N[C@@H](CC(N)=O)C(=O)O [PS I, Phe Leu Ser Leu Ile Pro His Ala Ile Asn Ala Val Ser Ala Ile Ala Lys His Asn] (H-FLSLIPHAINAVSAIAKHN-OH) | 16 | 8 | 6 | 8 | 16 | % Hemolysis of human red blood cells (human red blood cells; 1 μg/mL (0.496 μM), 37° C., 30 min, relative to 0.2% Triton X-100): 0.00%; % Hemolysis of human red blood cells (human red blood cells; 2 μg/mL (0.990 μM), 37° C., 30 min, relative to 0.2% Triton X-100): 0.00%; % Hemolysis of human red blood cells (human red blood cells; 4 μg/mL (1.980 μM), 37° C., 30 min, relative to 0.2% Triton X-100): 0.00%; % Hemolysis of human red blood cells (human red blood cells; 8 μg/mL (3.968 μM), 37° C., 30 min, relative to 0.2% Triton X-100): 0.30%; % Hemolysis of human red blood cells (human red blood cells; 16 μg/mL (7.937 μM), 37° C., 30 min, relative to 0.2% Triton X-100): 0.57%; % Hemolysis of human red blood cells (human red blood cells; 32 μg/mL (15.873 μM), 37° C., 30 min, relative to 0.2% Triton X-100): 0.60%; % Hemolysis of human red blood cells (human red blood cells; 64 μg/mL (31.746 μM), 37° C., 30 min, relative to 0.2% Triton X-100): 0.98%; % Hemolysis of human red blood cells (human red blood cells; 128 μg/mL (63.492 μM), 37° C., 30 min, relative to 0.2% Triton X-100): 1.98%
